Experimental findings from patent EP3138565A1, “METHOD FOR TREATING A TUMOUR DISEASE AND METHOD FOR SELECTIVELY INHIBITING TUMOUR CELL GROWTH USING A QUINOXALINE-1,4-DIOXIDE DERIVATIVE” (OOO "A-Laboratory", priority 2014, dated 2015) are described below.

One data set has as its system HCT116. The data set is described as follows: MTT test, antiproliferative activity. The format is cell-based, human. Conditions: for IC50: HCT-116, HCT116 human solid tumor cells, MTT test. On the procedure: (§1) Comparative study of cytotoxicity of 6,7-difluoro-3-phenyl-2-cyanoquinoxaline 1,4-dioxide (compound 7 obtained according to a method described in the Example 1) and the previously known 6,7-nonsubstituted analogue 6 (obtained earlier by a method described by [Hu Y. etal. Molecules 2012, 17, 9683]) was performed in in vitro tests on cells of human solid tumors, as well as normal human embryo lung fibroblasts (HELF) to control selectivity. IC50 values were determined by the MTT test according to a protocol described in the literature [Mossman T.J. Immunol. Methods, 1983, 65, 55]. Table 1. Antiproliferative activity (IC50, µM) of quinoxaline 1,4-dioxides 6 and 7 with respect to human solid tumor cells and non-tumor human embryo lung fibroblasts (HELF)

In a further data set the test system is K562 leukemic cells. The data set is described as follows: Antiproliferative activity on leukemia cells. The data set is classed as cell-based. Conditions: Homo sapiens. The method, then: (§2) Comparative study of cytotoxicity of 6,7-difluoro-3-phenyl-2-cyanoquinoxaline 1,4-dioxide (compound of formula 7), which is the subject if the present invention, was performed also on a culture of tumor […] leukemia K562 cells and its resistant subline K562/4 expressing p-glycoprotein. Expression of such ATP-dependent transporters on cell surface is one of the most common mechanisms of the multidrug resistance development in tumors [Shtil A.A., Grinchuk T.M., et. al. Int. J. Oncol., 2000, 17, 387]. Data of these studies, including the IC50 values of reference compounds, the previously described quinoxaline 1,4-dioxide of formula 6, and doxorubicin, as well as the resistance index value (RI is the ratio between the IC50 values of the K562/4 subline and IC50 of the K562 line) are presented in Table 2.

The test system of a further data set is K562/4. Kind of data set: Antiproliferative activity on multidrug-resistant subline expressing p-glycoprotein. The format is cell-based. Conditions: for IC50: Homo sapiens, K562/4 subline with multidrug resistance caused by p-gp expression; for RI, resistance index: RI = IC50(K562/4)/IC50(K562). The method, then:
as §2

The subject of a further data set is MSF7. Kind of data set: MTT test, antiproliferative activity. The data set is classed as cell-based. Conditions: MSF7 human solid tumor cells. The method, then:
as §1
Background: Tetrazolium dyes change colour on reduction, which living cells bring about.

Data set [1] concerns normal human embryo lung fibroblasts (HELF). The data set is described as follows: MTT test, cytotoxicity on non-tumor cells (selectivity control). Conditions: HELF; non-tumor human embryo lung fibroblasts, MTT test; read-out: IC50, µM HEFL. The format is cell-based. On the procedure: as §1
The subject of the next data set is animal tumor models. The data set is described as follows: Antitumor effect on animal tumor models. The data set is classed as in vivo. Conditions: no data given.
Data set [2] has as its system human tumor cells of various genesis. The data set is described as follows: Apoptosis induction in tumor cells under normoxia. The format is cell-based. Conditions: submicromolar concentrations, all studied types of human tumor cells.
Data set [3] can be described thus: MTT test, cytotoxicity on non-tumor cells (selectivity control). The format is cell-based. Conditions: tumor cells of different genesis vs non-tumor human fibroblasts; read-out: cytotoxicity with respect to tumor cells higher than against the non-tumor human fibroblast cells (selectivity). The method, then:
as §1

In the case of `N#Cc1c(-c2ccccc2)[n+]([O-])c2ccccc2[n+]1[O-]` [Compound 6, reference compound], the half-maximal inhibitory concentration (IC50) (in general, the concentration needed to halve the response being measured) in the data set on HCT116 was 8.4 ± 0.8 µM; in the data set with K562 leukemic cells it was 5.2 ± 0.78 µM; in the data set on K562/4 it was 33 ± 4 µM; in the data set with MSF7, 15.5 ± 0.98 µM; in data set [1], 25.2 ± 5.1 µM. Further, in the data set on K562/4, the “RI, resistance index” value worked out at 6.3.

On to `N#Cc1c(-c2ccccc2)[n+]([O-])c2cc(F)c(F)cc2[n+]1[O-]` [Compound 7, 6,7-difluoro-3-phenyl-2-cyanoquinoxaline 1,4-dioxide], for which the half-inhibitory concentration (IC50) in the data set on HCT116 was 0.6 ± 0.03 µM; in the data set on K562 leukemic cells, 0.15 ± 0.02 µM; in the data set on K562/4, 0.3 ± 0.05 µM; in the data set on MSF7 it was 0.1 ± 0.02 µM; in data set [1], 44 ± 1.9 µM. In addition, the “growth-inhibiting concentrations relative to the closest analogue of formula 6” value in the data set with HCT116 (all tested tumor cell lines) is on record as “two orders of magnitude lower”. For the same compound, the “activity toward K562/4 cells surpassing analogue of formula 6” value in the data set on K562/4 (K562/4, versus closest analogue of formula 6) turned out to be 100 fold. Besides, the “activity toward K562/4 cells surpassing doxorubicin” value in the data set on K562/4 (K562/4, versus reference preparation doxorubicin) is on record as around 50 fold. In addition, the “RI, resistance index” value with K562/4 is on record as 2.0. The “resistance index (RI) lower than doxorubicin” value with K562/4 (RI of compound versus RI of doxorubicin) is on record as around 50 fold. Besides, the antitumor effect result with animal tumor models was “reliable antitumor effect”. In data set [2], the apoptosis induction entry was “induced apoptosis”. The selectivity ratio in data set [3] fell in the range of 200 to 300.

In the data set with K562 leukemic cells, `COc1cccc2c1C(=O)c1c(O)c3c(c(O)c1C2=O)C[C@@](O)(C(=O)CO)C[C@@H]3O[C@H]1C[C@H](N)[C@H](O)[C@H](C)O1` [Doxorubicin, reference compound] yielded an IC50 of 0.18 ± 0.03 µM. Further, in the data set with K562/4, the IC50 was 18.4 ± 2.2 µM and the “RI, resistance index” value came to 102.2.
